Test results from ChEMBL document CHEMBL1201862, “PubChem BioAssay data set” (2004).
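Five concentrations, 48 hours, 96-well plates. GI50 = concentration required for 50% inhibition of growth.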 Calls of active or inactive are those of the source. Rule as the data show it: active = GI50 up to about 1.1 µM and inactive = higher.

Columns and labels:
Assay in all cases: growth of human tumour cells (NCI), 48 h
LXFL 529 = test system: LXFL 529
XF498 = test system: XF498
DMS-114 = test system: DMS-114
DMS-273 = test system: DMS-273
KM-20L2 = test system: KM-20L2
SNB-78 = test system: SNB-78
DLD-1 = test system: DLD-1
RXF 631 = test system: RXF 631
HOP-18 = test system: HOP-18

Compound | GI50 (LXFL 529) | GI50 (XF498) | GI50 (DMS-114) | GI50 (DMS-273) | GI50 (KM-20L2) | GI50 (SNB-78) | GI50 (DLD-1) | GI50 (RXF 631) | GI50 (HOP-18)
O=C(c1nc2ccccc2nc1O)C(O)c1ccco1 (configuration not stated) | 86.3 µM (inactive) | > 100 µM (inactive) | 52.6 µM (inactive) | > 100 µM (inactive) | 56.5 µM (inactive) | > 100 µM (inactive) |  |  | 
Cc1ccc(C2(C)NC(=S)N(NC(N)=S)C2=S)cc1 (configuration not stated) | 71.8 µM (inactive) | > 100 µM (inactive) | 73.6 µM (inactive) | > 100 µM (inactive) | > 100 µM (inactive) |  | 71.1 µM (inactive) | > 100 µM (inactive) | 
Cc1ccc(SSCCCS(=O)O)cc1 | 27.7 µM (inactive) | > 100 µM (inactive) | 15.9 µM (inactive) | 24.5 µM (inactive) | 31.7 µM (inactive) |  | 45.8 µM (inactive) | 20.4 µM (inactive) | > 100 µM (inactive)
CCC12CCCN(Cc3ccccc3)C1c1c(n(C)c3ccccc13)[C@H](C(=O)OC)C2 (some centres not stated) | > 239 µM (inactive) | 201 µM (inactive) | 226 µM (inactive) | > 239 µM (inactive) | 120 µM (inactive) |  | > 239 µM (inactive) | > 239 µM (inactive) | 
O=C1NC2(O)c3ccccc3C(=O)C2(O)N1c1ccccc1 (configuration not stated) | > 100 µM (inactive) | > 100 µM (inactive) | > 100 µM (inactive) |  | > 100 µM (inactive) |  | > 100 µM (inactive) | > 100 µM (inactive) | > 100 µM (inactive)
Cc1ccc(NC(=O)CCC(=O)C2Cc3ccccc3C2=O)cc1C (configuration not stated) | > 100 µM (inactive) | > 100 µM (inactive) | > 100 µM (inactive) | > 100 µM (inactive) | > 100 µM (inactive) | > 100 µM (inactive) | > 100 µM (inactive) |  | > 100 µM (inactive)
Cc1cc(NC(=O)NC(=O)c2ccccc2NC(=O)CN(C)C)ccc1Oc1ncc(Br)cn1 | 13.1 µM (inactive) | 19.7 µM (inactive) | 3.07 µM (inactive) | 3.74 µM (inactive) | 4.56 µM (inactive) | 19.2 µM (inactive) | 8.07 µM (inactive) |  | 
COc1ccc2c3c([nH]c2c1CC=C(C)C)C(=O)C=C(C)C3=O | 15.8 µM (inactive) | > 25 µM (inactive) | 18.3 µM (inactive) | > 25 µM (inactive) | > 25 µM (inactive) |  | > 25 µM (inactive) |  | 12.1 µM (inactive)
CC1=CCP(C(F)(F)F)P(C(F)(F)F)C1 (configuration not stated) | > 100 µM (inactive) |  | > 100 µM (inactive) |  | > 100 µM (inactive) | > 100 µM (inactive) | > 100 µM (inactive) | > 100 µM (inactive) | > 100 µM (inactive)
CC(=O)/C(=N\O)C(=O)NCCc1ccccc1 | > 100 µM (inactive) | 31.6 µM (inactive) | 43.7 µM (inactive) | 55.1 µM (inactive) | 78.9 µM (inactive) | > 100 µM (inactive) | 60.4 µM (inactive) |  | > 100 µM (inactive)
N#CCCN(c1ccc(-c2nnc(NC(=O)CNNC(=O)CC(=O)Nc3ccccc3)s2)cc1)S(=O)(=O)c1ccccc1 | 89.9 µM (inactive) | > 100 µM (inactive) | 55.8 µM (inactive) | > 100 µM (inactive) |  |  | > 100 µM (inactive) | > 100 µM (inactive) | > 100 µM (inactive)
COc1ccc(CN2C(=O)C(Cc3cc(OC)c(OC)c(C)c3OC)N(C(=O)OC(C)C)C(=O)/C2=C/c2cc(OC)c(OC)c(C)c2OC)cc1 (configuration not stated) | 12.7 µM (inactive) |  | 24.9 µM (inactive) | 23.6 µM (inactive) | > 100 µM (inactive) |  | > 100 µM (inactive) | > 100 µM (inactive) | 16.3 µM (inactive)
O=c1c(Cl)c(Cl)cnn1CCCl | 1.62 µM (inactive) | 3 µM (inactive) | 4.3 µM (inactive) | 5.27 µM (inactive) | 13 µM (inactive) | 11.8 µM (inactive) | 1.47 µM (inactive) |  | 
O=C1CCC2(CCC(=O)NC2=O)C(=O)N1 | > 100 µM (inactive) | > 100 µM (inactive) | > 100 µM (inactive) | > 100 µM (inactive) | > 100 µM (inactive) |  |  |  | 
O=C(NO)C(=O)Nc1cc(Cl)ccc1Cl | > 100 µM (inactive) |  | 69.3 µM (inactive) | 42.7 µM (inactive) | > 100 µM (inactive) | > 100 µM (inactive) | > 100 µM (inactive) | 62.7 µM (inactive) | > 100 µM (inactive)
CCOC(=O)CCCO | > 100 µM (inactive) | > 100 µM (inactive) |  |  | > 100 µM (inactive) |  | > 100 µM (inactive) | > 100 µM (inactive) | > 100 µM (inactive)
Cn1cnc([N+](=O)[O-])c1Sc1nnc(-c2ccc(Cl)cc2)n1C | 10.4 µM (inactive) |  | 15.8 µM (inactive) | 16.4 µM (inactive) |  | 13.2 µM (inactive) | 11 µM (inactive) | 15.6 µM (inactive) | 5.25 µM (inactive)
CCOP(=O)(C/C(=N/NC(C)(C)C)C(=O)Nc1nc2ccc(C)cc2s1)OCC | > 100 µM (inactive) | > 100 µM (inactive) | > 100 µM (inactive) | > 100 µM (inactive) | > 100 µM (inactive) | > 100 µM (inactive) |  | > 100 µM (inactive) | > 100 µM (inactive)
COc1cc([C@@H]2c3cc4c(cc3[C@@H](OC(=O)c3ccc(N)cc3)C3COC(=O)[C@@H]32)OCO4)cc(OC)c1O (some centres not stated) | 14.8 µM (inactive) |  |  | 3.43 µM (inactive) | 1.88 µM (inactive) | 15.2 µM (inactive) | 5.6 µM (inactive) | 9.1 µM (inactive) | > 95.1 µM (inactive)
COc1ccc(COC2CC(OC)OC(C)C2OC(=O)c2ccccc2)cc1 (configuration not stated) | 26.5 µM (inactive) | 21.7 µM (inactive) | 26 µM (inactive) | 39.4 µM (inactive) | 14.7 µM (inactive) | 41.7 µM (inactive) | 18.7 µM (inactive) | 30.7 µM (inactive) | > 100 µM (inactive)
C[C@@H]1O[C@@H](O[C@H]2CC[C@]3(C=O)[C@H]4CC[C@]5(C)[C@@H](c6ccc(=O)oc6)CC[C@]5(O)[C@@H]4CC[C@]3(O)C2)[C@H](O)[C@H](O)[C@H]1O[C@@H]1O[C@H](CO)[C@@H](O)[C@H](O)[C@H]1O [HELLEBRIN] |  | 0.0375 µM (active) | 0.00208 µM (active) | 0.00775 µM (active) | 0.0187 µM (active) | 0.0375 µM (active) |  |  | 0.00518 µM (active)
C/C(CC(=O)Nc1ccc([N+](=O)[O-])cc1)=N/N=C(N)N | 82 µM (inactive) | > 100 µM (inactive) | > 100 µM (inactive) | > 100 µM (inactive) | > 100 µM (inactive) | > 100 µM (inactive) | > 100 µM (inactive) | > 100 µM (inactive) | 
CCN1C(=O)C(N=[N+]=[N-])(c2ccccc2)C(=O)c2ccccc21 (configuration not stated) | 38.9 µM (inactive) | 0.946 µM (active) | 41.7 µM (inactive) | > 100 µM (inactive) | > 100 µM (inactive) | 98.2 µM (inactive) | > 100 µM (inactive) |  | > 100 µM (inactive)
Cc1cc(C(C)C)cc(=O)c(O)c1 | > 100 µM (inactive) |  |  | > 100 µM (inactive) | > 100 µM (inactive) | > 100 µM (inactive) | > 100 µM (inactive) | > 100 µM (inactive) | > 100 µM (inactive)
